Our source for the Ki values is US9321764B2, “Dihydro-pyrrolopyridinone inhibitors” (AbbVie Inc., priority 2013, dated 2016).

The target of experiment [1] is T1, BRD4 (BDI_K57-E168) (Homo sapiens, UniProt O60885).
T1 construct: BD1: amino acids K57-E168; made in house
Put plainly: TR-FRET bromodomain binding assay, first bromodomain of BRD4. The note with it: His-tagged BD1, 100 nM Alexa647 probe; TR-FRET protocol A-E given per row. The protocol: (§1) A time-resolved fluorescence resonance energy transfer (TR-FRET) assay was used to determine the affinities of compounds of the Examples listed in Table 1 for each bromodomain of BRD4. His-tagged first (BD1: amino acids K57-E168) and second (BD2: amino acids E352-E168) bromodomains of BRD4 were expressed and purified. An Alexa647-labeled BET-inhibitor was used as the fluorescent probe in the assay.
(§2) Compound dilution series were prepared in DMSO via an approximately 3-fold serial dilution from one of the following:
Assay method A: 250 μM-4.2 nM
Assay method B: 0.47 mM to 7.8 nM
Assay method C: 500 μM-8.5 nM
(§3) Assay method D: 2.5 mM-800 nM
Assay method E: 0.047 mM to 0.78 nM or 5-fold serial dilution from Assay method D
For Assay methods A, C, and D: Compounds were then diluted 6:100 in assay buffer (20 mM Sodium Phosphate, pH 6.0, 50 mM NaCl, 1 mM Ethylenediaminetetraacetic acid, 0.01% Triton X-100, 1 mM DL-Dithiothreitol) to yield 3× working solutions. Six microliters (μL) of the working solution was then transferred to white, low-volume assay plates (Costar #3673). A 1.5× assay mixture containing His-tagged bromodomain, Europium-conjugated anti-His antibody (Invitrogen PV5596) and the Alexa-647-conjugated probe molecule was also prepared. Twelve μL of this solution were added to the assay plate to reach a final volume of 18 μL.
For Assay methods B and E: Compound dilutions were added directly into white, low-volume assay plates (Perkin Elmer Proxiplate 384 Plus #6008280) using a Labcyte Echo in conjunction with Labcyte Access and Thermo Multidrop CombinL robotics. Compounds were then suspended in eight microliters (μL) of assay buffer (20 mM Sodium Phosphate, pH 6.0, 50 mM NaCl, 1 mM Ethylenediaminetetraacetic acid disodium salt dihydrate, 0.01% Triton X-100, 1 mM DL-Dithiothreitol) containing His-tagged bromodomain, Europium-conjugated anti-His antibody (Invitrogen PV5596) and Alexa-647-conjugated probe.
The final concentration of 1× assay mixture for assay methods A, B, C, D, and E contains 2% DMSO, 8 nM His-tagged bromodomain, 1 nM Europium-conjugated anti-His-tag antibody and 100 nM or 30 nM probe (for BDI or BDII, respectively) and compound concentration in the range of: 5 μM-85 pM for method A, 9.19 μM 150 pM for method B, 10 μM-169 pM for method C, 50 μM-16 nM for method D, and 0.92 μM-15 pM for method E.
After a one-hour equilibration at room temperature, TR-FRET ratios were determined using an Envision multilabel plate reader (Ex 340, Em 495/520).
TR-FRET data were normalized to the means of 24 no-compound controls (“high”) and 8 controls containing 1 μM un-labeled probe (“low”). Percent inhibition was plotted as a function of compound concentration and the data were fit with the 4 parameter logistic equation to obtain IC50s Inhibition constants (Ki) were calculated from the IC50s, probe Kd and probe concentration. Typical Z′ values were between 0.65 and 0.75. The minimum significant ratio was determined to evaluate assay reproducibility (Eastwood et al., (2006) J Biomol Screen, 11: 253-261). The MSR was determined to be 2.03 for BDI and 1.93 for BDII, and a moving MSR (last six run MSR overtime) for both BDI and BDII was typically <3.
In general terms: In TR-FRET formats the signal depends on donor and acceptor labels being close together.

The target of experiment [2] is T2, BRD4 (BDII_E352-M457) (Homo sapiens, UniProt O60885).
T2 construct: proliferation; Protocol; made in house
Put plainly: TR-FRET bromodomain binding assay, second bromodomain of BRD4. The note with it: His-tagged BD2, 30 nM Alexa647 probe; TR-FRET protocol A-E given per row. On the procedure: as §1, §2, §3
For Assay methods A, C, and D: Compounds were then diluted 6:100 in assay buffer (20 mM Sodium Phosphate, pH 6.0, 50 mM NaCl, 1 mM Ethylenediaminetetraacetic acid, 0.01% Triton X-100, 1 mM DL-Dithiothreitol) to yield 3× working solutions. […] Twelve μL of this solution were added to the assay plate to reach a final volume of 18 μL.
TR-FRET data were normalized to the means of 24 no-compound controls (“high”) and 8 controls containing 1 μM un-labeled probe (“low”). Percent inhibition was plotted as a function of compound concentration and the data were fit with the 4 parameter logistic equation to obtain IC50s Inhibition constants (Ki) were calculated from the IC50s, probe Kd and probe concentration. Typical Z′ values were between 0.65 and 0.75.

The term Ki denotes the dissociation constant of the complex between target and ligand, obtained from inhibition or displacement. Read a low Ki as tighter binding. As for `Cn1cc(-c2c(OCC3CC3)ccc3cc[nH]c23)c2cc[nH]c(=O)c21` [Example 98, 3-[6-(cyclopropylmethoxy)-1H-indol-7-yl]-1-methyl-1,6-dihydro-7H-pyrrolo[2,3-c]pyridin-7-one], the results for the inhibition constant Ki in experiment [1] and in experiment [2] were 992 nM and 2030 nM, respectively.

Consider `Cn1cc(-c2cc(NCc3ccc(Oc4ccccc4)cc3)ccc2Oc2ccc(F)cc2F)c2cc[nH]c(=O)c21` [Example 173, 3-{2-(2,4-difluorophenoxy)-5[(4-phenoxybenzyl)amino]phenyl}-1-methyl-1,6-dihydro-7H-pyrrolo[2,3-c]pyridin-7-one], for which the Ki in experiment [1] came to 214 nM; in experiment [2], 781 nM.

For `Cn1cc(-c2cc(S(C)(=O)=O)ccc2OCCCC2CCCC2)c2cc[nH]c(=O)c21` [Example 66, 3-[2-(3-cyclopentylpropoxy)-5-(methylsulfonyl)phenyl]-1-methyl-1,6-dihydro-7H-pyrrolo[2,3-c]pyridin-7-one], the results for the Ki in experiment [1] and in experiment [2] were 219 nM and 741 nM, respectively.

For `Cn1cc(-c2cc(S(C)(=O)=O)ccc2OCCC2CCCCC2)c2cc[nH]c(=O)c21` [Example 36, 3-[2-(2-cyclohexylethoxy)-5-(methylsulfonyl)phenyl]-1-methyl-1,6-dihydro-7H-pyrrolo[2,3-c]pyridin-7-one], the Ki in experiment [1] amounted to 146 nM; in experiment [2], 515 nM.

Turning to `CCOC(=O)c1cc2c(-c3cn(C)c4c(=O)[nH]ccc34)c(OCC3CC3)ccc2[nH]1` [Example 99, ethyl 5-(cyclopropylmethoxy)-4-(1-methyl-7-oxo-6,7-dihydro-1H-pyrrolo[2,3-c]pyridin-3-yl)-1H-indole-2-carboxylate], the Ki in experiment [1] is greater than 2380 nM; in experiment [2] it was 2430 nM.

On to `Cn1cc(-c2cc(NC(=O)C3CCN(c4ccccc4)C3=O)ccc2Oc2ccc(F)cc2F)c2cc[nH]c(=O)c21` (stereo not shown) [Example 157, N-[4-(2,4-difluorophenoxy)-3-(1-methyl-7-oxo-6,7-dihydro-1H-pyrrolo[2,3-c]pyridin-3-yl)phenyl]-2-oxo-1-phenylpyrrolidine-3-carboxamide], for which the values for the Ki in experiment [1] and in experiment [2] were 118 nM and 333 nM, respectively.

Turning to `Cc1c[nH]c(=O)c2c1c(-c1cc(S(C)(=O)=O)ccc1Oc1ccc(F)cc1F)cn2C` [Example 123, 3-[2-(2,4-difluorophenoxy)-5-(methylsulfonyl)phenyl]-1,4-dimethyl-1,6-dihydro-7H-pyrrolo[2,3-c]pyridin-7-one], the Ki in experiment [1] stood at 130 nM; in experiment [2], 428 nM.

On to `CCS(=O)(=O)c1ccc(Oc2cncnc2)c(-c2cn(C)c3c(=O)[nH]ccc23)c1` [Example 88, 3-[5-(ethylsulfonyl)-2-(pyrimidin-5-yloxy)phenyl]-1-methyl-1,6-dihydro-7H-pyrrolo[2,3-c]pyridin-7-one], for which the Ki in experiment [1] worked out at 287 nM; in experiment [2] it was 739 nM.

With `Cn1cc(-c2cc(NCc3c(F)cccc3F)ccc2Oc2ccc(F)cc2F)c2cc[nH]c(=O)c21` [Example 175, 3-{5-[(2,6-difluorobenzyl)amino]-2-(2,4-difluorophenoxy)phenyl}-1-methyl-1,6-dihydro-7H-pyrrolo[2,3-c]pyridin-7-one], the figures for the inhibition constant (Ki) in experiment [1] and in experiment [2] were 69.1 nM and 285 nM, respectively.

Turning to `Cn1cc(-c2cc(NC(=O)Cc3cc(Cl)ccc3F)ccc2Oc2ccc(F)cc2F)c2cc[nH]c(=O)c21` [Example 159, 2-(5-chloro-2-fluorophenyl)-N-[4-(2,4-difluorophenoxy)-3-(1-methyl-7-oxo-6,7-dihydro-1H-pyrrolo[2,3-c]pyridin-3-yl)phenyl]acetamide], the results for the inhibitory constant (Ki) in experiment [1] and in experiment [2] were 62.4 nM and 59.6 nM, respectively.

As for `CCS(=O)(=O)Nc1ccc(Oc2ccc(F)cc2)c(-c2cn(C)c3c(=O)[nH]ccc23)c1` [Example 15, N-[4-(4-fluorophenoxy)-3-(1-methyl-7-oxo-6,7-dihydro-1H-pyrrolo[2,3-c]pyridin-3-yl)phenyl]ethanesulfonamide], the Ki in experiment [1] came to 3.3 nM; in experiment [2], 12 nM.

Take `Cn1ccc2c(-c3cc(S(C)(=O)=O)ccc3OCC3CC3(F)F)cn(C)c2c1=O` (stereo not shown) [Example 43, 3-{2-[(2,2-difluorocyclopropyl)methoxy]-5-(methylsulfonyl)phenyl}-1,6-dimethyl-1,6-dihydro-7H-pyrrolo[2,3-c]pyridin-7-one]: the inhibition constant (Ki) in experiment [1] is 2580 nM; in experiment [2], 2540 nM.

On to `Cc1cccc(OCC2CC2)c1-c1cn(C)c2c(=O)[nH]ccc12` [Example 50, 3-[2-(cyclopropylmethoxy)-6-methylphenyl]-1-methyl-1,6-dihydro-7H-pyrrolo[2,3-c]pyridin-7-one], for which the Ki is 1710 nM in experiment [1] and greater than 4440 nM in experiment [2].

As for `COc1ccccc1CC(=O)Nc1ccc(Oc2ccc(F)cc2F)c(-c2cn(C)c3c(=O)[nH]ccc23)c1` [Example 149, N-[4-(2,4-difluorophenoxy)-3-(1-methyl-7-oxo-6,7-dihydro-1H-pyrrolo[2,3-c]pyridin-3-yl)phenyl]-2-(2-methoxyphenyl)acetamide], the inhibition constant Ki in experiment [1] worked out at 41.6 nM; in experiment [2] it was 54 nM.

Consider `Cn1cc(-c2cc(S(C)(=O)=O)ccc2OCCC23CC4CC(CC(C4)C2)C3)c2cc[nH]c(=O)c21` [Example 65], for which the Ki worked out at 416 nM in experiment [1] and 2640 nM in experiment [2].

Turning to `Cn1cc(-c2cc(NCCC(C)(C)C)ccc2Oc2ccc(F)cc2F)c2cc[nH]c(=O)c21` [Example 174, 3-{2-(2,4-difluorophenoxy)-5-[(3,3-dimethylbutyl)amino]phenyl}-1-methyl-1,6-dihydro-7H-pyrrolo[2,3-c]pyridin-7-one], the values for the Ki in experiment [1] and in experiment [2] were 57.5 nM and 215 nM, respectively.

On to `CCS(=O)(=O)Nc1ccc(Oc2ccc(F)cc2F)c(-c2cn(C)c3c(=O)[nH]c(C(=O)N4CCOCC4)cc23)c1` [Example 191, N-{4-(2,4-difluorophenoxy)-3-[1-methyl-5-(morpholin-4-ylcarbonyl)-7-oxo-6,7-dihydro-1H-pyrrolo[2,3-c]pyridin-3-yl]phenyl}ethanesulfonamide], for which the inhibitory constant (Ki) in experiment [1] is 7.63 nM; in experiment [2], 54.6 nM.

Regarding `CCS(=O)(=O)c1ccc(Oc2ccc(Cl)c(Cl)c2)c(-c2cn(C)c3c(=O)[nH]ccc23)c1` [Example 76, 3-[2-(3,4-dichlorophenoxy)-5-(ethylsulfonyl)phenyl]-1-methyl-1,6-dihydro-7H-pyrrolo[2,3-c]pyridin-7-one], the inhibition constant (Ki) in experiment [1] stood at 77 nM; in experiment [2], 64 nM.

Take `Cn1cc(-c2cc(S(C)(=O)=O)ccc2OCCc2ccccc2)c2cc[nH]c(=O)c21` [Example 37, 1-methyl-3-[5-(methylsulfonyl)-2-(2-phenylethoxy)phenyl]-1,6-dihydro-7H-pyrrolo[2,3-c]pyridin-7-one]: the Ki in experiment [1] was determined as 52 nM; in experiment [2], 99 nM.

Take `Cn1cc(-c2cc(NCc3ccnc4ccccc34)ccc2Oc2ccc(F)cc2F)c2cc[nH]c(=O)c21` [Example 179, 3-{2-(2,4-difluorophenoxy)-5-[(quinolin-4-ylmethyl)amino]phenyl}-1-methyl-1,6-dihydro-7H-pyrrolo[2,3-c]pyridin-7-one]: the values for the Ki in experiment [1] and in experiment [2] were 69.9 nM and 231 nM, respectively.
